Series [1] in a line: Thioflavin T fluorescence, fibril/aggregate formation in MHB. The conditions noted are these: ThT 20 µM, peptide 20 mg/mL in MHB, 37 °C, 24 h, reading every 30 s, ex 450 nm / em 490 nm. In kind it is physicochemical. Here is the method:
In the second stage of our research, we decided to determine the propensity of the ten short amyloids (Table 1) to form fibrils under the conditions routinely used to evaluate AMP properties, i.e., upon their incubation in Mueller–Hinton Broth (MHB; for details, see Materials and Methods). These experiments could also allow us to speculate whether the amyloid properties of peptides go along with their antimicrobial activities. To detect the presence of protein fibrils, we used a benzothiazole dye (thioflavin T). Thioflavin T binds to β sheet-rich structures in amyloid aggregates and triggers a characteristic red shift, i.e., an increase in the wavelength in both excitation and emission maximum of the dye. […] The fluorescence spectra of the remaining peptides were indistinguishable from those of the medium itself (Figure S1).
The amyogenic abilities of the tested amyloids were determined in a kinetic reaction using the fluorescent dye thioflavin T (ThT), according to the modified method of Salinas et al.. […] ThT fluorescence intensity readings were performed in 96-well opaque microplates using a SpectraMax GeminiXPS spectrofluorometer at an excitation of λex 450 nm, an emission of λem 490 nm, and a cut-off point of λcut off 475 nm. Measurements were monitored for 24 h every 30 s. at 37 °C. The results were analysed in the SoftMax program. […]

Series [2] relates to Enterococcus faecium 2VRE. In kind it is cell-based. Here is the method:
(§1) All bacterial strains were stored at −80 °C. The strains were revived using overnight cultures prepared in Tryptic Soy Broth (TSB, OXOID, Basingstoke, UK) and incubated under shaking conditions (MaxQTM6000 incubator shaker, Thermo Scientific, Waltham, MA, USA) at 125 rpm and 37 °C. Next, the purity of the strains was evaluated using enriched media (appropriate for the tested strains). For each experiment, a fresh 18–20 h culture was prepared on Tryptic Soy Agar (TSA, OXOID, Basingstoke, UK) for Gram-positive bacteria and MacConkey Agar (MC, OXOID, Basingstoke) for Gram-negative bacteria, and the samples were then transferred to fresh Mueller–Hinton Broth (MHB, OXOID, Basingstoke, UK), where the density was determined. Each culture was established at 10^8 CFU/mL and then diluted to a starting inoculum of 10^6 CFU/mL.
(§2) The microdilution method was used to measure the antimicrobial activity of amyloids. The test was performed according to the recommendations of EUCAST (ISO 20776–1:2019).
(§3) In 96-well microtiter plates, geometric dilutions of the tested amyloids were prepared from 128 to 0.25 µg/mL in 50 µL MHB. The stock solution (20 mg/mL) of the synthesized amyloids was prepared in MHB. The bacterial suspension prepared in MHB with a density of 10^6 CFU/mL was added to 50 µL of MHB containing the appropriate concentrations of amyloids, thus yielding a final bacterial concentration of 10^5 CFU/mL. Pure MHB was used as a negative control, while the control for bacterial growth was MHB medium in the presence of the strain used in the experiment. Antibiotic solutions were used as positive controls: colistin for Gram-negative bacteria and teicoplanin for Gram-positive bacteria.
(§4) Microtiter plates were incubated at 37 °C for 18 h for S. aureus, S. epidermidis, K. pneumoniae, E. coli, A. baumannii, and E. cloacae and 24 h for E. faecalis and E. faecium. Optimal density (OD600 nm) was measured in a plate reader (ASYS UVM340, BIOCHROM Ltd., Cambridge, UK). The absorbance results were converted to percentages (with respect to growth control) in the normalization process. The MIC (minimal inhibitory concentration) for each peptide was defined as the concentration at which the destruction of at least 90% of the initial inoculum was observed.
(§5) Each experiment was performed in three independent studies for each of the two isolates, and each replicate was performed in three separate wells. […] The MBC value was defined as the lowest concentration at which no growth of the tested strain was observed.
(§6) Linear regression analyses for viability of the HEK-293 cells subjected to ten amyloids, as well as the estimation of IC50 values, were determined in R Statistical Software using the model y = ax + 100% in the function lm from the stats package. The regression analyses for the viability of the bacterial cells and the estimation of MIC were conducted based on a linear mixed-effects model y = ax + 100% + (1|isolate/replicate) in lmer function from R package lme4 [73]. Isolates and replicates were assumed as random effects. The p-values of the determination coefficient and the slope were corrected using the Benjamini–Hochberg procedure for the obtained models.

Series [3] deals with Escherichia coli 1471. It counts as cell-based. Here is the method: as §1, §2, §3, §4, §5, §6
The subject of series [4] is Enterococcus faecalis 37VRE. It counts as cell-based. Here is the method: as §1, §2, §3, §4, §5, §6
The subject of series [5] is Klebsiella pneumoniae N111. In kind it is cell-based. Here is the method:
as §1, §2, §3, §4, §5, §6

The test system of series [6] is HEK-293 cells. It counts as cell-based, human. The conditions noted are these: HEK-293, MTT, 24 h exposure, 128 to 0.25 µg/mL; from linear regression y = ax + 100%. Here is the method: HEK-293 human embryonic kidney cells (ATCC, CRL-1573) were cultured in DMEM medium supplemented with 10% fetal bovine serum and 1% penicillin/streptomycin solution. The cells were cultured at 37 °C, 5% CO2, until the concentration was about 10^6 per mL. A total of 2 × 10^5 cells/mL were seeded in 96-well tissue microplates (2 × 10^4 cells per well) and were allowed to adhere overnight under the conditions described above. Cytotoxicity tests were carried out on the cells prepared in this way.
Cells were incubated with varying concentrations from 128 to 0.25 µg/mL of the tested amyloid for 24 h exposure. The MTT assay has been previously described. After incubating the cells with the tested amyloids, the MTT reagent (Ck = 0.5 mg/mL) was added to a well of a microtiter plate. After 2 h incubation (37 °C, 5% CO2), the MTT medium was removed and replaced with DMSO, to which was then added Sorensen’s buffer (0.1 M glycine, 0.1 M NaCl; pH 10.5). In the MTT test, the cell viability is directly proportional to the absorbance (570 nm). The control cells for background absorbance contained the growth medium, with MTT only. For MTT analysis, at least three experiments were performed using cells from consecutive passages. […]

Results on 9 molecules are retold here after publication PMC9821130, “Testing Antimicrobial Properties of Selected Short Amyloids” (International Journal of Molecular Sciences, 2023).

In brackets after ≈: the same amount, converted by molar mass. Where two headings read alike, the source gives them in different places. Where a SMILES comes first, the peptide text is derived from it. Where no end group is shown, it is not given here.

In the case of `C[C@@H](O)[C@H](NC(=O)[C@H](Cc1ccccc1)NC(=O)[C@H](CS)NC(=O)[C@H](Cc1c[nH]c2ccccc12)NC(=O)[C@H](CS)NC(=O)[C@@H](N)CCCCN)C(=O)O` [Amyloid 5] (H-KCWCFT-OH; N-terminus and C-terminus assumed), the “Formation of aggregates (fibrils) in the MHB medium” value in series [1] is listed as “formed aggregates in the MHB medium”. The minimal inhibitory concentration (MIC) in series [2] (2VRE) was determined as 230 µg/mL (≈ 292 µM); in series [3] it was 405 µg/mL (≈ 515 µM).
Consider AIIGLM [Amyloid 8], for which the MIC is listed as 496 µg/mL in series [4] (37VRE), 280 µg/mL in series [2] (2VRE), 372 µg/mL in series [3] and 475 µg/mL in series [5] (N111).
For the molecule GGYLLG [Amyloid 9], the IC50 in series [6] is recorded as 171 µg/mL. In addition, the MIC in series [4] (E. faecalis 37VRE, calculated from linear mixed-effects regression model, beyond tested range (max 128 µg/mL)) is 389 µg/mL; in series [2] (E. faecium 2VRE, calculated from linear mixed-effects regression model, beyond tested range (max 128 µg/mL), MIC = at least 90% destruction), 204 µg/mL; in series [5] (K. pneumoniae N111, calculated from linear mixed-effects regression model, beyond tested range (max 128 µg/mL)), 406 µg/mL.
Consider LIVAGK [Amyloid 3], for which the MIC in series [2] (2VRE) is recorded as 301 µg/mL.
Consider LKVKVL [Amyloid 7], for which the MIC in series [4] (37VRE) turned out to be 418 µg/mL; in series [2] (2VRE), 326 µg/mL; in series [3] it was 345 µg/mL.
Regarding VCIVYK [Amyloid 2], the results for the MIC in series [4] (37VRE) and in series [2] (2VRE) were 364 µg/mL and 177 µg/mL, respectively.
Take VGIVYK [Amyloid 10]: the MIC is listed as 193 µg/mL in series [4] (37VRE) and 295 µg/mL in series [2] (2VRE).
In the case of VKIVYK [Amyloid 6], the results for the MIC in series [2] (2VRE), in series [3] and in series [5] (N111) were 179 µg/mL, 319 µg/mL and 482 µg/mL, respectively.
As for VQIVCK [Amyloid 1], the MIC was determined as 228 µg/mL in series [4] (37VRE) and 196 µg/mL in series [2] (2VRE).
